Source: patent US20250170093A1, “ENDOPLASMIC RETICULUM PROTEIN HYOU1-BINDING COMPOUND FOR INHIBITING ENDOPLASMIC RETICULUM-MITOCHONDRIAL INTERACTION AND USES THEREOF” (UIF (University Industry Foundation), Yonsei Univeristy, priority 2023, published 2025)

What was measured:
p62, LC3B-II and α-SMA = test: Western blot of autophagy and smooth muscle cell proliferation markers in PAH cell model; format: cell-based, human; details: TGF-β-stimulated PASMCs, vs control group
Method: Human pulmonary artery smooth muscle cells (PASMCs; 4-8 passages) were cultured in an SmGM2 basal medium (Lonza, CC-3181) containing 5% FBS, supplements (Lonza, CC-4149) and 1% antibiotics.
The cells were cultured in a chamber-type cell culture slide. When they reached 70% confluence, the medium was replaced with a medium containing 0.5% FBS and the cells were incubated for 4 hours to inhibit cell proliferation. The cells were then treated with DMSO and CTS (5 μM) while simultaneously stimulating with TGF-β (5 ng/ml) for 24 hours. The level of p62, LC3 and α-SMA was confirmed by western blot.

HYOU1 = target: T1, HYOU1 (Homo sapiens, UniProt Q9Y4L1); test: DARTS-western analysis in HUVEC lysate; format: binding; details: dose-dependent, read-out: EC50 of resistance to degradation by Pronase
T1 construct: endogenous in cells; host or cells: HUVEC
T1 sequence (Q9Y4L1 33-999): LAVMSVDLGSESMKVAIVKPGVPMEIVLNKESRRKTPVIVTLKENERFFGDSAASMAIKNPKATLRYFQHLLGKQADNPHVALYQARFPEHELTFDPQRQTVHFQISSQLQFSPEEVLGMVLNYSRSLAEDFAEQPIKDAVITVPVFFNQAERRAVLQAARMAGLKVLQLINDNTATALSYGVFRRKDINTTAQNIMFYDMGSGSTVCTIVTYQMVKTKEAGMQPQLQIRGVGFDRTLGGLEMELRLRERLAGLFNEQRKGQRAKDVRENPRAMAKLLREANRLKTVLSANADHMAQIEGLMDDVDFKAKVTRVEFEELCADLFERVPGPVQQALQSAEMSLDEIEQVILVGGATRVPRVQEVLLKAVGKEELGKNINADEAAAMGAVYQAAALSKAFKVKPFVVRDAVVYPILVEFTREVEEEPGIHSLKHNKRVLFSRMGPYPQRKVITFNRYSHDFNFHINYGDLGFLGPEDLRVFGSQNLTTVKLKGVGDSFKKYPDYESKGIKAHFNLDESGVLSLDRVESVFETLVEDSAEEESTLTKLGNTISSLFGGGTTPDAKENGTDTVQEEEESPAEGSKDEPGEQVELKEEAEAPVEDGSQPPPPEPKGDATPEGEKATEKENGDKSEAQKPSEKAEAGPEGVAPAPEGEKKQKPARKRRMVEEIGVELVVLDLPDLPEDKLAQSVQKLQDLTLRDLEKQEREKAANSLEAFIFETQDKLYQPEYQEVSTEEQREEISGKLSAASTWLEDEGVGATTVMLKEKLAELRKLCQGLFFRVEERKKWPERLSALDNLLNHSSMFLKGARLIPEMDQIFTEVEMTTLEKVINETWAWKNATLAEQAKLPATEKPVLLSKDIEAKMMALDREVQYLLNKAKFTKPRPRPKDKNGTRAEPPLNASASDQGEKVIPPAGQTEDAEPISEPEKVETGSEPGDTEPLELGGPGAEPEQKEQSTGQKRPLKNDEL
Method: HepG2 or HUVECs (1×10^7 cells) were lysed by homogenization in PBS buffer containing a protease/phosphatase inhibitor cocktail (½ tablet, 25 mL; Pierce), and the concentration of total proteins was determined by BCA assay. All steps were performed on ice to avoid premature protein degradation. The cell lysate (final protein concentration: 1 mg/mL, 100 μL) was aliquoted into a 1.5-mL tube and incubated with 0.01 to 10 μM CTS (in 1 μL DMSO) for 3 hours at 4° C. with gentle stirring. Pronase (non-specific protease) was then added (final concentration: 1 μg/mL) and reaction was performed for 10 minutes. After adding a 6×SDS buffer, the Pronase reaction was stopped by heating for 7 minutes.
DARTS-western analysis was used to validate HYOU1 as a target protein of CTS in the lysate of HUVECs. […] In addition, […] to degradation by Pronase (protease) in a dose-dependent manner, with an EC50 value calculated to be about 1 μM (FIG. 5B).

[1] = tested on: ApoE−/− mice fed a high-cholesterol diet; test: Atherosclerosis-induced animal model (ApoE-/- mice fed a high-cholesterol diet); format: in vivo, mouse; details: 20 mg/kg intraperitoneally every 2 days for 8 weeks
Method: Mouse experiments were performed in accordance with the ethical guidelines approved by the Institutional Animal Care and Use Committee of Yonsei University (IACUC-A-202208-1519-01). ApoE−/− mice were provided by Dr. Goo Taeg Oh (Ewha Womans University, Korea) and were housed in a pathogen-free system with a 12-hour light-dark cycle with free access to water and food. The mice were fed a high-cholesterol diet from 6 weeks after birth until the end of the experiment. At the end of the experiment, the mice were anesthetized with Avertin (2,2,2-tribromoethanol) and perfused with PBS through the left ventricle.
The outer membrane fat of the aorta isolated from the sacrificed animals was removed, dissected longitudinally, and fixed on a white silicone plate. After overnight fixation with 4% PFA, aortas were stained overnight with Oil Red O and washed with PBS. The heart and liver were then harvested and fixed overnight in 4% PFA and then placed in a 30% sucrose solution. After preparing tissues and preserving through cryopreservation (OCT) or paraffin embedding, sections were prepared for histologic analysis. For analysis of atherosclerotic lesions, the bottom of the heart, including the proximal aorta, was embedded in OCT medium, stained using the Oil Red O stain, and then quantified using the Image J software. […]

HUVECs [2] = test: Transmission electron microscopy of ER and mitochondria in HUVECs; format: cell-based, human; details: CTS 5 μM; control group 61%
From the text: First, HUVECs were imaged by transmission electron microscopy (TEM) to visualize the ER and mitochondria, and the ER-mitochondrial distance was observed. […] Increased contact between the ER and mitochondria can lead to cellular stress and dysfunction. CTS can help restore cellular homeostasis and prevent adverse effects associated with increased ER-mitochondrial interactions.

HUVECs [3] = test: Mitochondrial calcium assay (Rhod-2) in HUVECs; format: cell-based, human; details: pretreated with xestospongin C, then treated with oxLDL
Method: To measure calcium content in mitochondria or cytosol, HUVECs were cultured overnight at a density of 1.5×10^4 cells/well in a chamber slide (8-well) and incubated with Rhod-2/AM (2 μM) (Invitrogen, R1244) or Fluo-4/AM (1 μM) (Invitrogen, F14201), respectively, for 30 minutes at room temperature. The cells were then incubated in a calcium-free Krebs-Ringer-HEPES buffer (pH 7.4) additionally for 30 minutes for de-esterification of the dye. Images were captured in real time using an LSM980 confocal microscope (Zeiss, Oberkochen, Germany).
In addition, it was investigated whether intracellular calcium was released from the ER and imported into the mitochondria in response to oxLDL. Specifically, it was confirmed that, when the HUVECs were treated with oxLDL along with the Rhod-2 dye, which is a marker of mitochondrial calcium, mitochondrial calcium level was increased. In contrast, when HUVECs were pretreated with xestospongin C, which is an IP3R antagonist, and then treated with oxLDL, there was no increase in the mitochondrial calcium level (FIG. 1D). This means that the oxLDL-induced increase in mitochondrial calcium is derived from the endoplasmic reticulum (ER).
Furthermore, in order to investigate whether change in the physical coupling between the ER and mitochondria affects communications between cell organelles, Ca^2+ transport from the ER to mitochondria was examined. […]

Row | SMILES | decrease of expression of autophagy and smooth muscle cell proliferation markers (p62, LC3B-II and α-SMA) | EC50 (HYOU1) | body weight [1] | number of dots closer than 40 nm (ER-mitochondrial distance) (HUVECs [2]) | mitochondrial calcium level (Rhod-2) (HUVECs [3])
1 | C[C@H]1COC2=C1C(=O)C(=O)c1c2ccc2c1CCCC2(C)C [CTS, Cryptotanshinone] | approximately 40% | ~1000 nM | did not affect | 37% | –
2 | C1CCC[C@H]2CCCN3CC[C@@H](CCCCCC[C@@H]4CCCN5CC[C@@H](CC1)O[C@@H]45)O[C@@H]23 [xestospongin C] | – | – | – | – | no increase
